In article PMC9401498 (Clinical Cancer Research, 2021):

Legend:
[1] = tested on: renal cell carcinoma (RCC); experiment: Antitumor activity by RECIST v1.1, RCC cohorts; assay type: in vivo, human
[2] = tested on: tumor cell lines; details: preclinical, several tumor cell lines; cited from earlier work
[3] = tested on: solid tumor xenograft mouse models; details: preclinical, e.g., RCC, NSCLC, TNBC, hematologic malignancies; alone and in combination; cited from earlier work
[4] = All RCC (n = 28), number (percent) of efficacy evaluable patients

## O=C(Cc1cccc(OC(F)(F)F)c1)Nc1ccc(CCCCc2nnc(NC(=O)Cc3ccccn3)s2)nn1 [telaglenastat, Telaglenastat]
[1]; 28 evaluable patients with RCC in both dose escalation and dose expansion, 14/28
  Disease control rate (DCR): 50%
[1]; [4]
  Best overall response: Partial response: 1 (3.6)
  Best overall response: Progressive disease: 14 (50.0)
  Best overall response: Stable disease: 13 (46.4)
[1]; clear cell RCC patient with PR (800 mg BID)
  reduction in target lesions: 32%
[1]; in vivo
  patients with RCC remaining on study for more than 10 months: Four
[1]; one clear cell patient with RCC
  time on study: > 2.4 years
[1]; renal cell carcinoma
  overall response rate: 5%
[2]
  antiproliferative activity: cytostatic and cytotoxic antiproliferative activity
[3]
  effect on tumor growth: cytostatic-suppressive effects against tumor growth
